# Where two headings read alike, the source gives them in different places.
# What was measured:
# Format in all cases: cell-based
# Azotobacter vinelandii = system: Azotobacter vinelandii
# Protocol: (§1) Bacteria strains, nitrifiers, phosphorus solubilizers and antagonists for pathogens: • a) Azotobacter vinelandii • b) Bacillus megaterium • c) Bacillus subtillis • d) Bacillus thuringiensis • e) Clostridium pasteuranium • f) Rhizobium Preparation for Stage Development • 1. Glass material is sterilized in an autoclave. • 2. The required amount of growth media is prepared, DFA Agar, Malt Agar (Corn Agar) and (PDA) to obtain viable colonies. • 3. Lethal dose (LD) applied to a hectare is established, for thiodicarb as well as bifenthrin. 10 Petri dishes are prepared with 0.1 LD of thiodicarb of bifenthrin. Dishes are incubated at 25° C. for 72 hours with cold light.
# (§2) Methodology • a. Petri dishes are placed inside the laminar flow chamber along with the diluted samples, to seed microorganisms in the dishes, a one ml sample of the strain is taken with an automated pipette, 10^−1 and 10^−2 solutions are performed and each solution is homogenized. • b. […] Inoculated dishes are incubated for 72 hours and the bacteria growth will be recorded, the product concentration impact is determined over the plate growth (12 hours of incubation). • e. […] The colony diameter is determined using a graduated ruler, data is recorded subtracting the diameter of the seeded dish, from which the effect over the mycelial growth will be determined compared to the control (not poisoned MA, denominated as percentage of inhibition of radial growth (PIRG %). • h. Progress is recorded daily and after 7 days analysis of an acceptable coverage is performed, if not, the procedure is repeated as many times as required. • i. From the 10 Petri dishes for each microorganism, the one with the lowest mortality is the one that will continue with the following study. • j. […]
# (§3) Characteristics for this procedure were recorded during all stages through the following indicators: • a. […] Percentage of inhibition measured in Number of CFU/mm • c. […]
# Bacillus megaterium = test: Stagewise adaptation on growth media with thiodicarb / bifenthrin, mortality; conditions: for Resistant to: (FINAL): after the selective process, 40 stages
# Protocol: as §1
# Methodology • a. Petri dishes are placed inside the laminar flow chamber along with the diluted samples, to seed microorganisms in the dishes, a one ml sample of the strain is taken with an automated pipette, 10^−1 and 10^−2 solutions are performed and each solution is homogenized. • b. Having the petri dishes with the sterile and cold growth media, it is homogenized with 6 right to left movements, 6 clockwise movements, 6 counterclockwise movements and 6 front to back movements over a flat horizontal surface until the inoculum is completely integrated into the media, stand until it solidifies and each dish is covered with parafilm to avoid contamination during incubation. • c. Dishes with thiodicarb and Bifenthrin are placed inside the incubator at 25° C. for 72 hours with a cold light lamp. • d. Inoculated dishes are incubated for 72 hours and the bacteria growth will be recorded, the product concentration impact is determined over the plate growth (12 hours of incubation). • e. The residual impact of the product is reviewed after 7 days in the malt agar and PDA agar medias. • f. […] The colony diameter is determined using a graduated ruler, data is recorded subtracting the diameter of the seeded dish, from which the effect over the mycelial growth will be determined compared to the control (not poisoned MA, denominated as percentage of inhibition of radial growth (PIRG %). • h. Progress is recorded daily and after 7 days analysis of an acceptable coverage is performed, if not, the procedure is repeated as many times as required. • i. From the 10 Petri dishes for each microorganism, the one with the lowest mortality is the one that will continue with the following study. • j. […]
# as §3
# (§4) For each species, stages analyzing times required to cover the entire field were performed. Once this time was determined, they were left to rest for 10 days to be later subject to the following protocol: […]
# Bacillus subtillis = test: as above; conditions: for Resistant to: (FINAL): after the adaptation process, 40 stages
# Protocol: as §1
# (§5) Methodology • a. Petri dishes are placed inside the laminar flow chamber along with the diluted samples, to seed microorganisms in the dishes, a one ml sample of the strain is taken with an automated pipette, 10^−1 and 10^−2 solutions are performed and each solution is homogenized. • b. Having the petri dishes with the sterile and cold growth media, it is homogenized with 6 right to left movements, 6 clockwise movements, 6 counterclockwise movements and 6 front to back movements over a flat horizontal surface until the inoculum is completely integrated into the media, stand until it solidifies and each dish is covered with parafilm to avoid contamination during incubation. • c. Dishes with thiodicarb and Bifenthrin are placed inside the incubator at 25° C. for 72 hours with a cold light lamp. • d. Inoculated dishes are incubated for 72 hours and the bacteria growth will be recorded, the product concentration impact is determined over the plate growth (12 hours of incubation). • e. The residual impact of the product is reviewed after 7 days in the malt agar and PDA agar medias. • f. If there is no growth over 10%, the process is repeated until a mortality under 90% is obtained. • g. The colony diameter is determined using a graduated ruler, data is recorded subtracting the diameter of the seeded dish, from which the effect over the mycelial growth will be determined compared to the control (not poisoned MA, denominated as percentage of inhibition of radial growth (PIRG %). • h. Progress is recorded daily and after 7 days analysis of an acceptable coverage is performed, if not, the procedure is repeated as many times as required. • i. From the 10 Petri dishes for each microorganism, the one with the lowest mortality is the one that will continue with the following study. • j. The study is performed again using this percentage until coverage increases and so on, the addition of thiodicarb and bifenthrin is alternated with the LD in intervals of 0.1 LD; all these experiments have been designed with the experimental strains and a control. • k. With the data obtained from the bacterial growth, the percentage of inhibition of gradual growth is obtained, the data is transformed for its analysis with the expression 2 arc sin. A two-way classification analysis of variance is applied and later the Turkey test is performed using a 5% probability.
# (§6) Characteristics for this procedure were recorded during all stages through the following indicators: • a. Growth speed • b. Percentage of inhibition measured in Number of CFU/mm • c. Percentage of poison resistance
# as §4
# Bacillus thuringiensis = test: as above; conditions: for Resistant to: (FINAL): after the adaptation process, 48 stages
# Protocol: as §1, §5, §6, §4
# Clostridium pasteuranium = test: as above; conditions: for Resistant to: (FINAL): after the selective process, 40 stages
# Protocol: as §1, §5, §6, §4
# Rhizobium sp = test: as above; conditions: for Resistant to: (FINAL): after the adaptation process, 40 stages
# Protocol: as §1, §2, §3
# [1] = thiodicarb 0.9 LD (0.00016 gr), stages E-33 and E-34
# [2] = thiodicarb 0.2 LD (0.000035 gr), stages E-3 and E-4
# [3] = thiodicarb 0.1 LD (0.0000175 gr), stage E-2
# [4] = bifenthrin 0.9 LD (0.00000042 gr), stages E-37 and E-38
Structure (SMILES),mortality (Azotobacter vinelandii; [1]),Resistant to: (FINAL) (Bacillus megaterium),mortality (Bacillus megaterium; [2]),Resistant to: (FINAL) (Bacillus subtillis),"mortality (Bacillus subtillis; thiodicarb 0.1 LD (0.0000175 gr), stage E-1, until day 68 of incubation)",mortality (Bacillus subtillis; [3]),Resistant to: (FINAL) (Bacillus thuringiensis),mortality (Bacillus thuringiensis; [1]),"mortality (Bacillus thuringiensis; thiodicarb 1 LD (0.00018 gr), stages E-35 and E-36)","mortality (Bacillus thuringiensis; thiodicarb 1.2 LD (0.00022 gr), stages E-43 and E-44)",Resistant to: (FINAL) (Clostridium pasteuranium),"mortality (Clostridium pasteuranium; thiodicarb 0.1 LD (0.0000175 gr), stage E-1, until incubation day 72)",mortality (Clostridium pasteuranium; [3]),Resistant to: (FINAL) (Rhizobium sp),mortality (Rhizobium sp; [2]),"mortality (Azotobacter vinelandii; bifenthrin 0.2 LD (0.00000012 gr), stages E-7 and E-8)",mortality (Azotobacter vinelandii; [4]),"mortality (Bacillus megaterium; bifenthrin 0.1 LD (0.00000006 gr), stages E-5 and E-6)","mortality (Bacillus subtillis; bifenthrin 0.3 LD (0.00000018 gr), stages E-13 and E-14)",mortality (Clostridium pasteuranium; [4])
CS/C(C)=N\OC(=O)N(C)SN(C)C(=O)O/N=C(\C)SC [thiodicarb],10%,1 LD of thiodicarb,65%,1 LD of thiodicarb,82%,80%,1.2 LD of thiodicarb,30%,25%,14%,1 DL of thiodicarb,87%,84%,1 DL of thiodicarb,60%,–,–,–,–,–
"Cc1c(COC(=O)[C@@H]2[C@H](/C=C(\Cl)C(F)(F)F)C2(C)C)cccc1-c1ccccc1 (racemic) [bifenthrin, 2-methyl biphenyl-3-ilmetil(2)-(1RS,3RS)-3-(2-chlorine 3,3,3-trifluoropropene)-2,2-dimethyl-cyclo-propane-carboxylate]",–,1 LD of thiodicarb,–,1 LD of thiodicarb,–,–,1.2 LD of thiodicarb,–,–,–,1 DL of thiodicarb,–,–,1 DL of thiodicarb,–,60%,10%,63%,65%,10%
